In patent publication US10295551B2, “Development and use of fluorescent probes of unbound bilirubin” (Alan Marc Kleinfeld, priority 2011, dated 2019):

Tests used:
[1] = molecular target: T1, rat intestinal fatty acid binding protein (rI-FABP, SEQ ID NO: 3) variant L24P19C7, 14R 18L 38V 60R 73F 106C 115R 117D, SEQ ID NO: 36 (Rattus norvegicus, UniProt P02693, A74F/L39V/L73A/M19L/Q116R/R107C/V61R/Y118D/Y15R); assay: bilirubin binding to L24P19C7 probe (fluorescence titration)
T1 construct: made in house
T1 sequence (P02693 with tags, fused parts or gaps Y15R/M19L/L39V/V61R/L73A/A74F/R107C/Q116R/Y118D): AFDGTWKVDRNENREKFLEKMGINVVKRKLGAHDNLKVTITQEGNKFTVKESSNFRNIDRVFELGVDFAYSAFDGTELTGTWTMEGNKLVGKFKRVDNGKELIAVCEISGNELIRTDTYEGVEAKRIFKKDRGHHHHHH
Experimental: Also described are analytical/mathematical methods for calibrating and using the bilirubin probes. Bilirubin probes are calibrated to determine their binding affinity for bilirubin (dissociation constant Kd) under conditions, such as temperature, pH and solution composition, that correspond to samples in which it is desired to know the unbound bilirubin concentration. Binding isotherms are performed in aqueous buffer by measuring the change in fluorescence of the bilirubin probes in response to increasing bilirubin concentrations (“titration data”). The set of fluorescence responses at each bilirubin concentration are fitted with an appropriate equation (“calibration equation”) that correctly describes the fluorescence response as a function of the bilirubin concentration, the probe concentration, specific spectroscopic characteristics, and the Kd. […] Bilirubin probes are derived from a rat intestinal fatty acid binding protein (rI-FABP) as described previously for unbound FFA (FFAu) probes in U.S. Pat. No. 7,601,510, U.S. publication 2010/0298162 and [Huber A H, Zhu […] and […]. Fluorescence Sensor for the Quantification of Unbound Bilirubin Concentrations. Clin Chem 58: 869-876, 2012; Huber […], Zhu B and […]. Fatty acid-specific fluorescent probes and their use in resolving mixtures of different unbound free fatty acids in equilibrium with albumin. […]

[2] = molecular target: T2, rI-FABP (SEQ ID NO: 3) variant L2P14 F7-KR14 - K27C, KR14-18G 27C 31M 72A (Rattus norvegicus, UniProt P02693, G32M/K101R/K126R/K17R/K21R/K28C/K30R/K38R/K47R/K51R/K89R/K8R/K93R/K95R/L73A/M19G); assay: bilirubin binding to L2P14F7-KR14-K27C probe; conditions: Table 5, acrylodan
T2 construct: made in house
T2 sequence (P02693 with tags, fused parts or gaps with the stated changes): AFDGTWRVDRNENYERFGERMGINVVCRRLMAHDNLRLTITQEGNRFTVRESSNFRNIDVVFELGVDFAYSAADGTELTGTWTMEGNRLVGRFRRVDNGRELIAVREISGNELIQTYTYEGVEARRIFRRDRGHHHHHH
Experimental: (§1) Also described are analytical/mathematical methods for calibrating and using the bilirubin probes. Bilirubin probes are calibrated to determine their binding affinity for bilirubin (dissociation constant Kd) under conditions, such as temperature, pH and solution composition, that correspond to samples in which it is desired to know the unbound bilirubin concentration. Binding isotherms are performed in aqueous buffer by measuring the change in fluorescence of the bilirubin probes in response to increasing bilirubin concentrations (“titration data”). The set of fluorescence responses at each bilirubin concentration are fitted with an appropriate equation (“calibration equation”) that correctly describes the fluorescence response as a function of the bilirubin concentration, the probe concentration, specific spectroscopic characteristics, and the Kd.

[3] = molecular target: T3, rI-FABP (SEQ ID NO: 3) variant L10P9 E6, 14T 18L 73M 117C 72A (Rattus norvegicus, UniProt P02693, A74M/L73A/M19L/Y118C/Y15T); assay: bilirubin binding to L10P9E6 probe; conditions: Table 5, acrylodan
T3 construct: made in house
T3 sequence (P02693 with tags, fused parts or gaps Y15T/M19L/L73A/A74M/Y118C): as the sequence (P02693 with tags, fused parts or gaps Y15R/M19L/L39V/V61R/L73A/A74F/R107C/Q116R/Y118D) above, with R14T, V38L, R60V, F73M, C106R, R115Q, D117C counted along it
Experimental: as §1

[4] = molecular target: T4, rI-FABP (SEQ ID NO: 3) variant L24P19 C7 K27K 22C, 14R 18L 22C 38V 60R 73F 106C 115R 117D (Rattus norvegicus, UniProt P02693, A74F/G23C/L39V/L73A/M19L/Q116R/R107C/V61R/Y118D/Y15R); assay: bilirubin binding to L24P19C7 22C probe; conditions: Table 5, acrylodan
T4 construct: made in house
T4 sequence (P02693 with tags, fused parts or gaps Y15R/M19L/G23C/L39V/V61R/L73A/A74F/R107C/Q116R/Y118D): as the sequence (P02693 with tags, fused parts or gaps Y15R/M19L/L39V/V61R/L73A/A74F/R107C/Q116R/Y118D) above, with G22C counted along it
Experimental: as §1
. […] The optimal probe performance was obtained with cysteine at positions 25 or 26.

[5] = molecular target: T5, rI-FABP (SEQ ID NO: 3) variant L24P19 C7, 14R 18L 27A 38V 60R 73F 106A 115R 117D (Rattus norvegicus, UniProt P02693, A74F/K28A/L39V/L73A/M19L/Q116R/R107A/V61R/Y118D/Y15R); assay: bilirubin binding to L24P19 C7 as listed in Table 6; conditions: Table 6, acrylodan
T5 construct: Residues 27 and 106 disputed: row prints 27A 106A
T5 sequence (P02693 with tags, fused parts or gaps Y15R/M19L/K28A/L39V/V61R/L73A/A74F/R107A/Q116R/Y118D): as the sequence (P02693 with tags, fused parts or gaps Y15R/M19L/L39V/V61R/L73A/A74F/R107C/Q116R/Y118D) above, with K27A, C106A counted along it
Experimental: as §1

[6] = molecular target: T6, rI-FABP (SEQ ID NO: 3) variant BL2P2 B6, 14R 18L 31C 38V 60R 73V 106A 115R 117D (Rattus norvegicus, UniProt P02693, A74V/G32C/L39V/L73A/M19L/Q116R/R107A/V61R/Y118D/Y15R); assay: bilirubin binding to BL2P2B6 probe; conditions: Table 5, acrylodan
T6 construct: made in house
T6 sequence (P02693 with tags, fused parts or gaps Y15R/M19L/G32C/L39V/V61R/L73A/A74V/R107A/Q116R/Y118D): as the sequence (P02693 with tags, fused parts or gaps Y15R/M19L/L39V/V61R/L73A/A74F/R107C/Q116R/Y118D) above, with G31C, F73V, C106A counted along it
Experimental: as §1

[7] = molecular target: T7, rI-FABP (SEQ ID NO: 3) variant BL10P10 D10, 14F 18L 27C 38M 60Y 73F 106V 115R 117D (Rattus norvegicus, UniProt P02693, A74F/K28C/L39M/L73A/M19L/Q116R/R107V/V61Y/Y118D/Y15F); assay: bilirubin binding to BL10P10D10 probe; conditions: Table 5, acrylodan
T7 construct: made in house
T7 sequence (P02693 with tags, fused parts or gaps Y15F/M19L/K28C/L39M/V61Y/L73A/A74F/R107V/Q116R/Y118D): as the sequence (P02693 with tags, fused parts or gaps Y15R/M19L/L39V/V61R/L73A/A74F/R107C/Q116R/Y118D) above, with R14F, K27C, V38M, R60Y, C106V counted along it
Experimental: as §1

Kd ([1]; 22° C., aqueous bilirubin, acrylodan label): 0.022 µM
Kd ([1]; Table 5, acrylodan): 0.035 µM
Kd [2]: 0.53 µM
Kd [3]: 1.43 µM
Kd [4]: 0.071 µM
Kd [5]: 0.033 µM
Kd [6]: 0.137 µM
Kd [7]: 0.4 µM
SMILES: C=CC1=C(C)/C(=C/c2[nH]c(Cc3[nH]c(/C=C4\NC(=O)C(C)=C4C=C)c(C)c3CCC(=O)O)c(CCC(=O)O)c2C)NC1=O [bilirubin]
